# Measurements reported in patent publication US7157083B2, “Compositions and methods for treating retroviral infections” (priority 1998, dated 2007).
# Tested on: clinical isolate ROJO (low passage HIV-1) in human PBMCs
# Experiment: Study 1 PBMC assay: reverse transcriptase activity after ROJO infection (Treatments A, B, C)
# Format: cell-based
# Procedure: Percent virus control (% VC) in the following tables is the mean RT activity (cpm) as a percentage of a virus control. Percent cell control (% CC) is the mean XTT absorbance as a percentage of a cell control.
# Peripheral blood monocular cells (PBMCs) are obtained from normal hepatitis and HIV-1 negative donors by ficoll hypaque gradient separation. Briefly, anti-coagulated blood is diluted 1:1 with Dulbecco's phosphate buffered saline without Ca^++ and Mg^++ (PBS) and layered over 14 mL of Lymphocyte separation media in a 50 ml centrifuge tube. Tubes are then centrifuged for 30 minutes at 600× g. Banded PBLs are gently aspirated from the resulting interface and subsequently washed 2× with PBS by low speed centrifugation. The mononuclear cells are counted, viability determined by Trypan Blue dye exclusion and resuspended in RPM1640 medium supplemented with 15% FBS (heat inactivated), 2 mM L-glutamine, 100 U/mL penicillin, 100 μg/mL streptomycin, and 10 μg/mL gentamycin with 2 μg/mL phytohemagluttin (PHA) at 1×10^6 cells/mL. The cells are cultured for 48 to 72 h at 37° C., 5% CO2 Following incubation, cells are collected by centrifugation, washed and resuspended in RPMI 1640 supplemented with 15% FBS (heat inactivated), 2 Mm L-glutamine, 100 U/mL penicillin, 100 μg/mL streptomycin, and 10 μg/mL gentamycin with 20 U/mL recombinant IL-2 (R & D Systems, Minneapolis, Minn.). IL-2 is included in the culture medium to maintain the cell division initiated by the PHA mitogenic stimulation. The cultures are then maintained until use by ½ culture volume change with fresh IL-2 containing medium every 3 days.
# Human peripheral blood mononuclear cells from a minimum of 2 donors, that have been blasted with PHA and IL-2, are counted, viability determined by Trypan Blue dye exclusion and mixed in equal ratios. Pooled donors are used to minimize the variability observed between individual donors which results from quantitative and qualitative differences in HIV infection and overall response to the PHA and IL-2 of primary lymphocyte populations. The cells are resuspended at 1×10^6 cells/mL in RPMI 1640 without phenol red supplemented with 15% Fetal Bovine Serum (heat inactivated), 2 mM L-glutamine, 100 U/mL penicillin, 100 μg/mL streptomycin, 10 μg/mL gentamycin and IL-2 (20 U/mL, R&D Systems, Minneapolis, Minn.). Fifty microliters of cells are then distributed to the inner 60 wells of a 96 well round bottom Microtiter culture plate in a standard format developed by the Infectious Disease Research department of Southern Research Institute. Each plate contains cell control wells (cells only), virus control wells (cell plus virus), and experimental wells (drug plus cells plus virus).
# Using an in-house computer program, IC50 (50% inhibition of virus replication), TC50 (50% reduction in cell viability) and a therapeutic index (TI, […]) were determined. AZT was used as a relevant positive control compound for the individual assays.
# This study compares the ability of hyaluronidase to AZT to lower viral replication as measured by reverse transcriptase levels. RT was measured on days 7, 14, and 21. Three different treatment regimens were used in the comparative study (Treatments A, B and C).
# Treatment A. Normal mixed PHA blasted human PBMCs (5×10e4/well) were pretreated with drug every 48 hours for 3 doses. On day 6 of pretreatment, cells were infected with clinical isolate ROJO. 48 hours post infection, treatment with drugs continued for an additional 3 treatments. Samples for assay were collected on D7 (day 7), 14, 21, post infection, frozen and later analyzed for reverse transcriptase.
# Treatment B. Normal mixed PHA blasted human PBMCs (as above) were plated in 96 wells and allowed to incubate for 48 hours (cells were set at same time as treatment A from same pool). Drug pretreatment started on day 2 and was repeated on day 4. On day 6, cell were infected as in treatment A, with concurrent addition of drug for a total of 3 treatments. […]
compound,measurement,setting,value
"Cc1cn([C@H]2C[C@H](N=[N+]=[N-])[C@@H](CO)O2)c(=O)[nH]c1=O [AZT, reference compound]",RT activity % VC,"Treatment A, 0.00017 μM, Day 7",47.3%
same,RT activity % VC,"Treatment A, 0.00017 μM, Day 14",115.4%
same,RT activity % VC,"Treatment A, 0.00017 μM, Day 21",164.5%
same,RT activity % VC,"Treatment A, 0.00054 μM, Day 7",19.3%
same,RT activity % VC,"Treatment A, 0.00054 μM, Day 14",99.8%
same,RT activity % VC,"Treatment A, 0.00054 μM, Day 21",141.5%
same,RT activity % VC,"Treatment A, 0.00168 μM, Day 7",25.1%
same,RT activity % VC,"Treatment A, 0.00168 μM, Day 14",74.2%
same,RT activity % VC,"Treatment A, 0.00168 μM, Day 21",135.6%
same,RT activity % VC,"Treatment A, 0.00524 μM, Day 7",10.2%
same,RT activity % VC,"Treatment A, 0.00524 μM, Day 14",78.3%
same,RT activity % VC,"Treatment A, 0.00524 μM, Day 21",155.1%
same,RT activity % VC,"Treatment A, 0.01638 μM, Day 7",11.6%
same,RT activity % VC,"Treatment A, 0.01638 μM, Day 14",57.9%
same,RT activity % VC,"Treatment A, 0.01638 μM, Day 21",129.5%
same,RT activity % VC,"Treatment A, 0.0512 μM, Day 7",3.0%
same,RT activity % VC,"Treatment A, 0.0512 μM, Day 14",40.7%
same,RT activity % VC,"Treatment A, 0.0512 μM, Day 21",134.8%
same,RT activity % VC,"Treatment A, 0.16 μM, Day 7",2.7%
same,RT activity % VC,"Treatment A, 0.16 μM, Day 14",40.3%
same,RT activity % VC,"Treatment A, 0.16 μM, Day 21",126.3%
same,RT activity % VC,"Treatment A, 0.5 μM, Day 7",2.3%
same,RT activity % VC,"Treatment A, 0.5 μM, Day 14",21.4%
same,RT activity % VC,"Treatment A, 0.5 μM, Day 21",78.3%
same,RT activity % VC,"Treatment A, 5.5E-05 μM, Day 7",77.0%
same,RT activity % VC,"Treatment A, 5.5E-05 μM, Day 14",100.4%
same,RT activity % VC,"Treatment A, 5.5E-05 μM, Day 21",159.7%
same,RT activity % VC,"Treatment B, 0.00017 μM, Day 7",43.6%
same,RT activity % VC,"Treatment B, 0.00017 μM, Day 14",80.8%
same,RT activity % VC,"Treatment B, 0.00017 μM, Day 21",129.8%
same,RT activity % VC,"Treatment B, 0.00054 μM, Day 7",34.2%
same,RT activity % VC,"Treatment B, 0.00054 μM, Day 14",70.1%
same,RT activity % VC,"Treatment B, 0.00054 μM, Day 21",111.8%
same,RT activity % VC,"Treatment B, 0.00168 μM, Day 7",10.7%
same,RT activity % VC,"Treatment B, 0.00168 μM, Day 14",57.5%
same,RT activity % VC,"Treatment B, 0.00168 μM, Day 21",153.5%
same,RT activity % VC,"Treatment B, 0.00524 μM, Day 7",9.3%
same,RT activity % VC,"Treatment B, 0.00524 μM, Day 14",51.0%
same,RT activity % VC,"Treatment B, 0.00524 μM, Day 21",109.0%
same,RT activity % VC,"Treatment B, 0.01638 μM, Day 7",9.6%
same,RT activity % VC,"Treatment B, 0.01638 μM, Day 14",58.0%
same,RT activity % VC,"Treatment B, 0.01638 μM, Day 21",133.9%
same,RT activity % VC,"Treatment B, 0.0512 μM, Day 7",5.4%
same,RT activity % VC,"Treatment B, 0.0512 μM, Day 14",28.5%
same,RT activity % VC,"Treatment B, 0.0512 μM, Day 21",158.0%
same,RT activity % VC,"Treatment B, 0.16 μM, Day 7",3.9%
same,RT activity % VC,"Treatment B, 0.16 μM, Day 14",25.7%
same,RT activity % VC,"Treatment B, 0.16 μM, Day 21",93.8%
same,RT activity % VC,"Treatment B, 0.5 μM, Day 7",5.4%
same,RT activity % VC,"Treatment B, 0.5 μM, Day 14",9.5%
same,RT activity % VC,"Treatment B, 0.5 μM, Day 21",87.5%
same,RT activity % VC,"Treatment B, 5.5E-05 μM, Day 7",90.9%
same,RT activity % VC,"Treatment B, 5.5E-05 μM, Day 14",97.0%
same,RT activity % VC,"Treatment B, 5.5E-05 μM, Day 21",163.3%
same,RT activity % VC,"Treatment C, 0.00017 μM, Day 7",67.5%
same,RT activity % VC,"Treatment C, 0.00017 μM, Day 14",92.9%
same,RT activity % VC,"Treatment C, 0.00017 μM, Day 21",110.1%
same,RT activity % VC,"Treatment C, 0.00054 μM, Day 7",73.6%
same,RT activity % VC,"Treatment C, 0.00054 μM, Day 14",92.3%
same,RT activity % VC,"Treatment C, 0.00054 μM, Day 21",106.2%
same,RT activity % VC,"Treatment C, 0.00168 μM, Day 7",45.4%
same,RT activity % VC,"Treatment C, 0.00168 μM, Day 14",125.4%
same,RT activity % VC,"Treatment C, 0.00168 μM, Day 21",119.1%
same,RT activity % VC,"Treatment C, 0.00524 μM, Day 7",28.4%
same,RT activity % VC,"Treatment C, 0.00524 μM, Day 14",74.6%
same,RT activity % VC,"Treatment C, 0.00524 μM, Day 21",104.7%
same,RT activity % VC,"Treatment C, 0.01638 μM, Day 7",22.1%
same,RT activity % VC,"Treatment C, 0.01638 μM, Day 14",62.9%
same,RT activity % VC,"Treatment C, 0.01638 μM, Day 21",119.2%
same,RT activity % VC,"Treatment C, 0.0512 μM, Day 7",17.0%
same,RT activity % VC,"Treatment C, 0.0512 μM, Day 14",70.5%
same,RT activity % VC,"Treatment C, 0.0512 μM, Day 21",89.2%
same,RT activity % VC,"Treatment C, 0.16 μM, Day 7",10.3%
same,RT activity % VC,"Treatment C, 0.16 μM, Day 14",38.1%
same,RT activity % VC,"Treatment C, 0.16 μM, Day 21",72.0%
same,RT activity % VC,"Treatment C, 0.5 μM, Day 7",8.9%
same,RT activity % VC,"Treatment C, 0.5 μM, Day 14",26.8%
same,RT activity % VC,"Treatment C, 0.5 μM, Day 21",90.1%
same,RT activity % VC,"Treatment C, 5.5E-05 μM, Day 7",88.6%
same,RT activity % VC,"Treatment C, 5.5E-05 μM, Day 14",109.2%
same,RT activity % VC,"Treatment C, 5.5E-05 μM, Day 21",198.4%
